Laboratory results: patent US10807992B2, “Single enantiomer antiparasitic compounds” (priority 2017, dated 2020)
Like-named read-outs stand apart in the source and are kept apart here.

System: Aedes aegypti
Assay: In vitro contact activity against adult mosquitoes (coated vial)
Procedure: Aedes aegypti (Louisiana Biologicals Inc., New Orleans, La.) eggs were allowed to hatch, close, and age between 3-5 days in an environmental chamber at 26° C., 80% humidity with light/dark cycles.
For mosquito assays, an aliquot from each compound stock was added to an acetone/triton solution to achieve the desired top doses for the study. Serial dilutions were conducted from the top dose (i.e. 50 ppm) to achieve the desired titration range for EC50 and EC90 determination. The final DMSO concentration in each test vial was 0.5%. A 459 μL aliquot of each compound formulation was transferred to a vial and vials were immediately placed on an unheated roller unit to allow for an even coating of the vial walls. The vials were loosely capped and allowed to dry for a minimum of four hours in a chemical fume hood.
For both contact and ingestion assays, five female Aedes aegypti adults were added to each vial or cage. The test vials for contact assays were held in an environmental chamber at 24° C., 80% humidity with light/dark cycles (12 hours each). The cages for mosquito ingestion assays were held in a temperature-controlled artificial feeding apparatus to allow continual access to organic bovine blood containing the desired concentration of compound. Fresh aliquots of compound-spiked bovine blood were provided daily for the duration of the study.
Mosquitoes showing no movement or mosquitoes that were knocked down were noted as dead. Results from trial 1 and trial 2 contact assays are shown in Tables 12 and 13, respectively and the results from trial 3 mosquito ingestion assay is shown in table 14.
For the mosquito contact and ingestion assays, each replicate contained 5 mosquitoes. For ease of calculation, the two replicates were added to equal a total of 10 mosquitoes.

O=C(CC(F)(F)F)N1CC2(C1)OCc1cc(C3=NSC(c4cc(Cl)c(F)c(Cl)c4)(C(F)(F)F)C3)ccc12 (racemic) [C1 racemate, 1-[6-[5-(3,5-dichloro-4-fluoro-phenyl)-5-(trifluoromethyl)-4H-isothiazol-3-yl]spiro[1H-isobenzofuran-3,3′-azetidine]-1′-yl]-3,3,3-trifluoro-propan-1-one] showed a mortality at 0.049 µM (0.5 h, read-out: % Mortality R1 + R2, Trial 1, contact assay, dose 0.049 μM, 0.5 Hr) of 0%, a mortality at 0.2 µM (0.5 h, read-out: % Mortality R1 + R2, Trial 1, contact assay, dose 0.20 μM, 0.5 Hr) of 0% and a mortality at 0.78 µM (0.5 h, read-out: % Mortality R1 + R2, Trial 1, contact assay, dose 0.78 μM, 0.5 Hr) of 0%. The mortality at 3.125 µM (0.5 h, read-out: % Mortality R1 + R2, Trial 1, contact assay, dose 3.125 μM, 0.5 Hr) was 0%, the mortality at 12.5 µM (0.5 h, read-out: % Mortality R1 + R2, Trial 1, contact assay, dose 12.5 μM, 0.5 Hr) was 0% and the mortality at 50 µM (0.5 h, read-out: % Mortality R1 + R2, Trial 1, contact assay, dose 50 μM, 0.5 Hr) was 0%. It also gave a mortality at 0.049 µM (0.5 h, read-out: % Mortality R1 + R2, Trial 2, contact assay, dose 0.049 μM, 0.5 Hr) of 0%, a mortality at 0.2 µM (0.5 h, read-out: % Mortality R1 + R2, Trial 2, contact assay, dose 0.20 μM, 0.5 Hr) of 0% and a mortality at 0.78 µM (0.5 h, read-out: % Mortality R1 + R2, Trial 2, contact assay, dose 0.78 μM, 0.5 Hr) of 0%. It also gave a mortality at 3.125 µM (0.5 h, read-out: % Mortality R1 + R2, Trial 2, contact assay, dose 3.125 μM, 0.5 Hr) of 0%, a mortality at 12.5 µM (0.5 h, read-out: % Mortality R1 + R2, Trial 2, contact assay, dose 12.5 μM, 0.5 Hr) of 0% and a mortality at 50 µM (0.5 h, read-out: % Mortality R1 + R2, Trial 2, contact assay, dose 50 μM, 0.5 Hr) of 0%. For the same compound, the mortality at 0.049 µM (1 h, read-out: % Mortality R1 + R2, Trial 1, contact assay, dose 0.049 μM, 1 hr) was 0%, the mortality at 0.2 µM (1 h, read-out: % Mortality R1 + R2, Trial 1, contact assay, dose 0.20 μM, 1 hr) was 0% and the mortality at 0.78 µM (1 h, read-out: % Mortality R1 + R2, Trial 1, contact assay, dose 0.78 μM, 1 hr) was 0%. The mortality at 3.125 µM (1 h, read-out: % Mortality R1 + R2, Trial 1, contact assay, dose 3.125 μM, 1 hr) was 0%, the mortality at 12.5 µM (1 h, read-out: % Mortality R1 + R2, Trial 1, contact assay, dose 12.5 μM, 1 hr) was 0% and the mortality at 50 µM (1 h, read-out: % Mortality R1 + R2, Trial 1, contact assay, dose 50 μM, 1 hr) was 0%. It also gave a mortality at 0.049 µM (1 h, read-out: % Mortality R1 + R2, Trial 2, contact assay, dose 0.049 μM, 1 hr) of 0%, a mortality at 0.2 µM (1 h, read-out: % Mortality R1 + R2, Trial 2, contact assay, dose 0.20 μM, 1 hr) of 0% and a mortality at 0.78 µM (1 h, read-out: % Mortality R1 + R2, Trial 2, contact assay, dose 0.78 μM, 1 hr) of 0%. The mortality at 3.125 µM (1 h, read-out: % Mortality R1 + R2, Trial 2, contact assay, dose 3.125 μM, 1 hr) was 0%, the mortality at 12.5 µM (1 h, read-out: % Mortality R1 + R2, Trial 2, contact assay, dose 12.5 μM, 1 hr) was 0% and the mortality at 50 µM (1 h, read-out: % Mortality R1 + R2, Trial 2, contact assay, dose 50 μM, 1 hr) was 0%. The mortality at 0.049 µM (6 h, read-out: % Mortality R1 + R2, Trial 1, contact assay, dose 0.049 μM, 6 hr) was 0%, the mortality at 0.2 µM (6 h, read-out: % Mortality R1 + R2, Trial 1, contact assay, dose 0.20 μM, 6 hr) was 0% and the mortality at 0.78 µM (6 h, read-out: % Mortality R1 + R2, Trial 1, contact assay, dose 0.78 μM, 6 hr) was 0%. For the same compound, the mortality at 3.125 µM (6 h, read-out: % Mortality R1 + R2, Trial 1, contact assay, dose 3.125 μM, 6 hr) was 0%, the mortality at 12.5 µM (6 h, read-out: % Mortality R1 + R2, Trial 1, contact assay, dose 12.5 μM, 6 hr) was 0% and the mortality at 50 µM (6 h, read-out: % Mortality R1 + R2, Trial 1, contact assay, dose 50 μM, 6 hr) was 80%. The mortality at 0.049 µM (6 h, read-out: % Mortality R1 + R2, Trial 2, contact assay, dose 0.049 μM, 6 hr) was 0%, the mortality at 0.2 µM (6 h, read-out: % Mortality R1 + R2, Trial 2, contact assay, dose 0.20 μM, 6 hr) was 0% and the mortality at 0.78 µM (6 h, read-out: % Mortality R1 + R2, Trial 2, contact assay, dose 0.78 μM, 6 hr) was 0%. For the same compound, the mortality at 3.125 µM (6 h, read-out: % Mortality R1 + R2, Trial 2, contact assay, dose 3.125 μM, 6 hr) was 0%, the mortality at 12.5 µM (6 h, read-out: % Mortality R1 + R2, Trial 2, contact assay, dose 12.5 μM, 6 hr) was 10% and the mortality at 50 µM (6 h, read-out: % Mortality R1 + R2, Trial 2, contact assay, dose 50 μM, 6 hr) was 100%. The mortality at 0.049 µM (12 h, read-out: % Mortality R1 + R2, Trial 1, contact assay, dose 0.049 μM, 12 hr) was 0%, the mortality at 0.2 µM (12 h, read-out: % Mortality R1 + R2, Trial 1, contact assay, dose 0.20 μM, 12 hr) was 0% and the mortality at 0.78 µM (12 h, read-out: % Mortality R1 + R2, Trial 1, contact assay, dose 0.78 μM, 12 hr) was 0%. It also gave a mortality at 3.125 µM (12 h, read-out: % Mortality R1 + R2, Trial 1, contact assay, dose 3.125 μM, 12 hr) of 0%, a mortality at 12.5 µM (12 h, read-out: % Mortality R1 + R2, Trial 1, contact assay, dose 12.5 μM, 12 hr) of 0% and a mortality at 50 µM (12 h, read-out: % Mortality R1 + R2, Trial 1, contact assay, dose 50 μM, 12 hr) of 100%. The mortality at 0.049 µM (12 h, read-out: % Mortality R1 + R2, Trial 2, contact assay, dose 0.049 μM, 12 hr) was 0%, the mortality at 0.2 µM (12 h, read-out: % Mortality R1 + R2, Trial 2, contact assay, dose 0.20 μM, 12 hr) was 0% and the mortality at 0.78 µM (12 h, read-out: % Mortality R1 + R2, Trial 2, contact assay, dose 0.78 μM, 12 hr) was 0%. For the same compound, the mortality at 3.125 µM (12 h, read-out: % Mortality R1 + R2, Trial 2, contact assay, dose 3.125 μM, 12 hr) was 0%, the mortality at 12.5 µM (12 h, read-out: % Mortality R1 + R2, Trial 2, contact assay, dose 12.5 μM, 12 hr) was 80% and the mortality at 50 µM (12 h, read-out: % Mortality R1 + R2, Trial 2, contact assay, dose 50 μM, 12 hr) was 100%. For the same compound, the mortality at 0.049 µM (24 h, read-out: % Mortality R1 + R2, Trial 1, contact assay, dose 0.049 μM, 24 hr) was 0%, the mortality at 0.2 µM (24 h, read-out: % Mortality R1 + R2, Trial 1, contact assay, dose 0.20 μM, 24 hr) was 0% and the mortality at 0.78 µM (24 h, read-out: % Mortality R1 + R2, Trial 1, contact assay, dose 0.78 μM, 24 hr) was 0%. It also gave a mortality at 3.125 µM (24 h, read-out: % Mortality R1 + R2, Trial 1, contact assay, dose 3.125 μM, 24 hr) of 0%, a mortality at 12.5 µM (24 h, read-out: % Mortality R1 + R2, Trial 1, contact assay, dose 12.5 μM, 24 hr) of 90% and a mortality at 50 µM (24 h, read-out: % Mortality R1 + R2, Trial 1, contact assay, dose 50 μM, 24 hr) of 100%. For the same compound, the mortality at 0.049 µM (24 h, read-out: % Mortality R1 + R2, Trial 2, contact assay, dose 0.049 μM, 24 hr) was 0%, the mortality at 0.2 µM (24 h, read-out: % Mortality R1 + R2, Trial 2, contact assay, dose 0.20 μM, 24 hr) was 0% and the mortality at 0.78 µM (24 h, read-out: % Mortality R1 + R2, Trial 2, contact assay, dose 0.78 μM, 24 hr) was 0%. The mortality at 3.125 µM (24 h, read-out: % Mortality R1 + R2, Trial 2, contact assay, dose 3.125 μM, 24 hr) was 70%, the mortality at 12.5 µM (24 h, read-out: % Mortality R1 + R2, Trial 2, contact assay, dose 12.5 μM, 24 hr) was 100% and the mortality at 50 µM (24 h, read-out: % Mortality R1 + R2, Trial 2, contact assay, dose 50 μM, 24 hr) was 100%. For the same compound, the mortality at 0.049 µM (48 h, read-out: % Mortality R1 + R2, Trial 1, contact assay, dose 0.049 μM, 48 hr) was 40%, the mortality at 0.2 µM (48 h, read-out: % Mortality R1 + R2, Trial 1, contact assay, dose 0.20 μM, 48 hr) was 20% and the mortality at 0.78 µM (48 h, read-out: % Mortality R1 + R2, Trial 1, contact assay, dose 0.78 μM, 48 hr) was 30%. For the same compound, the mortality at 3.125 µM (48 h, read-out: % Mortality R1 + R2, Trial 1, contact assay, dose 3.125 μM, 48 hr) was 90%, the mortality at 12.5 µM (48 h, read-out: % Mortality R1 + R2, Trial 1, contact assay, dose 12.5 μM, 48 hr) was 100% and the mortality at 50 µM (48 h, read-out: % Mortality R1 + R2, Trial 1, contact assay, dose 50 μM, 48 hr) was 100%. For the same compound, the mortality at 0.049 µM (48 h, read-out: % Mortality R1 + R2, Trial 2, contact assay, dose 0.049 μM, 48 hr) was 0%, the mortality at 0.2 µM (48 h, read-out: % Mortality R1 + R2, Trial 2, contact assay, dose 0.20 μM, 48 hr) was 40% and the mortality at 0.78 µM (48 h, read-out: % Mortality R1 + R2, Trial 2, contact assay, dose 0.78 μM, 48 hr) was 0%. For the same compound, the mortality at 3.125 µM (48 h, read-out: % Mortality R1 + R2, Trial 2, contact assay, dose 3.125 μM, 48 hr) was 100%, the mortality at 12.5 µM (48 h, read-out: % Mortality R1 + R2, Trial 2, contact assay, dose 12.5 μM, 48 hr) was 100% and the mortality at 50 µM (48 h, read-out: % Mortality R1 + R2, Trial 2, contact assay, dose 50 μM, 48 hr) was 100%.
